In patent publication US12559529B2, “NPY2 receptor agonists” (Boehringer Ingelheim International GmbH, priority 2019, dated 2026):
*1 amine or outer side, *2 acyl side, *3 side chain or, on linkers, in order; H or OH if unused. Where a SMILES comes first, the peptide text is derived from it. Side-chain parts run from the residue outwards. The star is where a group is joined. C18 diacid = O=C(O)CCCCCCCCCCCCCCCCC(=O)*; γGlu = O=C(O)[C@H](CCC(=O)[*:2])N[*:1]; Isovaleryl = CC(C)CC(=O)*; AEEA = NCCOCCOCC(=O)O

Biological target: T1, Human Neuropeptide Y2 Receptor (Homo sapiens, UniProt P49146)
T1 construct: purchased CHEMICON HTS066M
T1 sequence (P49146 1-381): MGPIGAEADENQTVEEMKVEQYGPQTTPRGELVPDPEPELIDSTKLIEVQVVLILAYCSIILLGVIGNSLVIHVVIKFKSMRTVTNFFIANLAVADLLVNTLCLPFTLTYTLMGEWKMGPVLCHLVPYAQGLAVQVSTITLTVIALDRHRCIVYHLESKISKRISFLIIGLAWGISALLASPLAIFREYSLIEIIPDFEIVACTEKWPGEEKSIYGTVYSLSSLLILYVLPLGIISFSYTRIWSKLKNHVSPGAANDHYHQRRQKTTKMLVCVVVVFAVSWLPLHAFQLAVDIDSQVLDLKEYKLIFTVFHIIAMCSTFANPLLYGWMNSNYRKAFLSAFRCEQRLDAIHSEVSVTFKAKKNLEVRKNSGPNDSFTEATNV
Test: Radioligand binding competition assay (RLB)
Conditions: Table 3; human 125I-PYY (1-36) 0.02 nM, Y2 receptor membranes; read-out: Ki
Method in brief: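 Filtration format; Y2R membrane prep 0.5 μg/well; buffer 50 mM HEPES/5 mM MgCl2/1 mM CaCl2/0.2% ovalbumin pH 7.4; 2 h RT, shaking. Harvest on PEI-soaked GF/C, ice-cold HEPES/500 mM NaCl washes, scintillation count. IC50 by nonlinear fit.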

Ki [nM]	SMILES
1.17	CC[C@H](C)[C@H](NC(=O)[C@H](CCC(=O)O)NC(=O)[C@H](CCC(=O)O)NC(=O)[C@@H]1CCCN1C(=O)[C@H](CO)NC(=O)[C@H](C)NC(=O)[C@H](CC(=O)O)NC(=O)[C@H](CCC(=O)O)NC(=O)[C@H](CCC(=O)O)NC(=O)[C@@H]1CCCN1C(=O)[C@H](CCCCNC(=O)COCCOCCNC(=O)COCCOCCNC(=O)CC[C@H](NC(=O)CCCCCCCCCCCCCCCCC(=O)O)C(=O)O)NC(=O)[C@H](CCC(=O)O)NC(=O)[C@@H]1CCCN1C(=O)[C@H](C)NC(=O)CC(C)C)C(=O)N[C@@H](CCC(N)=O)C(=O)N[C@@H](CCCNC(=N)N)C(=O)N[C@@H](Cc1ccc(O)cc1)C(=O)N[C@@H](Cc1ccc(O)cc1)C(=O)N[C@H](C(=O)N[C@@H](CCC(=O)O)C(=O)N[C@@H](CC(C)C)C(=O)N[C@@H](CCCNC(=N)N)C(=O)N[C@@H](Cc1c[nH]cn1)C(=O)N[C@@H](Cc1ccc(O)cc1)C(=O)N[C@@H](Cc1ccc(O)cc1)C(=O)N[C@@H](CC(N)=O)C(=O)N[C@@H](Cc1c[nH]c2ccccc12)C(=O)N[C@@H](CC(C)C)C(=O)N[C@H](C(=O)N[C@@H](CCCNC(=N)N)C(=O)N[C@@H](CCC(N)=O)C(=O)N[C@@H](CCCNC(=N)N)C(=O)N[C@@H](Cc1ccc(O)cc1)C(N)=O)[C@@H](C)O)[C@@H](C)O [Compound 134, N{alpha-4}-(3-methylbutanoyl)-N{epsilon-7}-[2-(2-{2-[2-(2-{2-[(4S)-4-carboxy-4-(17-carboxyheptadecanamido)butanamido]ethoxy}ethoxy)acetamido]ethoxy}ethoxy)acetamido]-[4A,7K,9E,17I,18Q,22T,23E,28Y,30W,31L]hPYY (4-36)]
1.31	CC(C)CC(=O)N[C@@H](C)C(=O)N1CCC[C@H]1C(=O)N[C@@H](CCC(=O)O)C(=O)N[C@@H](CCCCNC(=O)COCCOCCNC(=O)COCCOCCNC(=O)CC[C@H](NC(=O)CCCCCCCCCCCCCCCCC(=O)O)C(=O)O)C(=O)N1CCC[C@H]1C(=O)N[C@@H](CCC(=O)O)C(=O)N[C@@H](C)C(=O)N[C@@H](CC(=O)O)C(=O)N[C@@H](C)C(=O)N[C@@H](CO)C(=O)N1CCC[C@H]1C(=O)N[C@@H](CCC(=O)O)C(=O)N[C@@H](CCC(=O)O)C(=O)N[C@@H](CC(C)C)C(=O)N[C@@H](CCC(N)=O)C(=O)N[C@@H](CCCNC(=N)N)C(=O)N[C@@H](Cc1ccc(O)cc1)C(=O)N[C@@H](Cc1ccc(O)cc1)C(=O)N[C@H](C(=O)N[C@@H](CCC(=O)O)C(=O)N[C@@H](CC(C)C)C(=O)N[C@@H](CCCNC(=N)N)C(=O)N[C@@H](Cc1c[nH]cn1)C(=O)N[C@@H](Cc1ccc(O)cc1)C(=O)N[C@@H](Cc1ccc(O)cc1)C(=O)N[C@@H](CC(N)=O)C(=O)N[C@@H](Cc1c[nH]c2ccccc12)C(=O)N[C@@H](CC(C)C)C(=O)N[C@H](C(=O)N[C@@H](CCCNC(=N)N)C(=O)N[C@@H](CCC(N)=O)C(=O)N[C@@H](CCCNC(=N)N)C(=O)N[C@@H](Cc1ccc(O)cc1)C(N)=O)[C@@H](C)O)C(C)C [Compound 135, N{alpha-4}-(3-methylbutanoyl)-N{epsilon-7}-[2-(2-{2-[2-(2-{2-[(4S)-4-carboxy-4-(17-carboxyheptadecanamido)butanamido]ethoxy}ethoxy)acetamido]ethoxy}ethoxy)acetamido]-[4A,7K,9E,10A,18Q,22V,23E,28Y,30W,31L]hPYY (4-36)]
0.89	CC(C)CC(=O)N[C@@H](C)C(=O)N1CCC[C@H]1C(=O)N[C@@H](CCC(=O)O)C(=O)N[C@@H](CCCCNC(=O)COCCOCCNC(=O)COCCOCCNC(=O)CC[C@H](NC(=O)CCCCCCCCCCCCCCCCC(=O)O)C(=O)O)C(=O)N1CCC[C@H]1C(=O)N[C@@H](CCC(=O)O)C(=O)N[C@@H](C)C(=O)N[C@@H](CC(=O)O)C(=O)N[C@@H](CO)C(=O)N[C@@H](CO)C(=O)N1CCC[C@H]1C(=O)N[C@@H](CCC(=O)O)C(=O)N[C@@H](CCC(=O)O)C(=O)N[C@@H](CC(C)C)C(=O)N[C@@H](CCC(N)=O)C(=O)N[C@@H](CCCNC(=N)N)C(=O)N[C@@H](Cc1ccc(O)cc1)C(=O)N[C@@H](Cc1ccc(O)cc1)C(=O)N[C@H](C(=O)N[C@@H](CO)C(=O)N[C@@H](CC(C)C)C(=O)N[C@@H](CCCNC(=N)N)C(=O)N[C@@H](Cc1c[nH]cn1)C(=O)N[C@@H](Cc1ccc(O)cc1)C(=O)N[C@@H](Cc1ccc(O)cc1)C(=O)N[C@@H](CC(N)=O)C(=O)N[C@@H](Cc1c[nH]c2ccccc12)C(=O)N[C@@H](CC(C)C)C(=O)N[C@H](C(=O)N[C@@H](CCCNC(=N)N)C(=O)N[C@@H](CCC(N)=O)C(=O)N[C@@H](CCCNC(=N)N)C(=O)N[C@@H](Cc1ccc(O)cc1)C(N)=O)[C@@H](C)O)C(C)C [Compound 136, N{alpha-4}-(3-methylbutanoyl)-N{epsilon-7}-[2-(2-{2-[2-(2-{2-[(4S)-4-carboxy-4-(17-carboxyheptadecanamido)butanamido]ethoxy}ethoxy)acetamido]ethoxy}ethoxy)acetamido]-[4A,7K,9E,10A,12S,18Q,22V,28Y,30W,31L]hPYY (4-36)] (Isovaleryl-APEK([AEEA-AEEA-γGlu-C18 diacid])PEADSSPEELQRYYVSLRHYYNWLTRQRY-NH2)
1.42	CC(C)CC(=O)N[C@@H](C)C(=O)N1CCC[C@H]1C(=O)N[C@@H](C)C(=O)N[C@@H](CCCCNC(=O)COCCOCCNC(=O)COCCOCCNC(=O)CC[C@H](NC(=O)CCCCCCCCCCCCCCCCC(=O)O)C(=O)O)C(=O)N1CCC[C@H]1C(=O)N[C@@H](CCC(=O)O)C(=O)N[C@@H](CCC(=O)O)C(=O)N[C@@H](CC(=O)O)C(=O)N[C@@H](C)C(=O)N[C@@H](CO)C(=O)N1CCC[C@H]1C(=O)N[C@@H](CCC(=O)O)C(=O)N[C@@H](CCC(=O)O)C(=O)N[C@@H](CC(C)C)C(=O)N[C@@H](CCC(N)=O)C(=O)N[C@@H](CCC(N)=O)C(=O)N[C@@H](Cc1ccc(O)cc1)C(=O)N[C@@H](Cc1ccc(O)cc1)C(=O)N[C@H](C(=O)N[C@@H](CO)C(=O)N[C@@H](CC(C)C)C(=O)N[C@@H](CCCNC(=N)N)C(=O)N[C@@H](Cc1c[nH]cn1)C(=O)N[C@@H](Cc1ccc(O)cc1)C(=O)N[C@@H](Cc1ccc(O)cc1)C(=O)N[C@@H](CC(N)=O)C(=O)N[C@@H](Cc1c[nH]c2ccccc12)C(=O)N[C@@H](CC(C)C)C(=O)N[C@H](C(=O)N[C@@H](CCCNC(=N)N)C(=O)N[C@@H](CCC(N)=O)C(=O)N[C@@H](CCCNC(=N)N)C(=O)N[C@@H](Cc1ccc(O)cc1)C(N)=O)[C@@H](C)O)C(C)C [Compound 138, N{alpha-4}-(3-methylbutanoyl)-N{epsilon-7}-[2-(2-{2-[2-(2-{2-[(4S)-4-carboxy-4-(17-carboxyheptadecanamido)butanamido]ethoxy}ethoxy)acetamido]ethoxy}ethoxy)acetamido]-[4A,6A,7K,9E,18Q,19Q,22V,28Y,30W,31L]hPYY (4-36)]
3.12	CC(C)CC(=O)N[C@@H](C)C(=O)N1CCC[C@H]1C(=O)N[C@@H](CCC(=O)O)C(=O)N[C@@H](CCCCNC(=O)COCCOCCNC(=O)COCCOCCNC(=O)CC[C@H](NC(=O)CCCCCCCCCCCCCCCCC(=O)O)C(=O)O)C(=O)N1CCC[C@H]1C(=O)N[C@@H](CCC(=O)O)C(=O)N[C@@H](CCC(=O)O)C(=O)N[C@@H](C)C(=O)N[C@@H](C)C(=O)N[C@@H](CO)C(=O)N1CCC[C@H]1C(=O)N[C@@H](CCC(=O)O)C(=O)N[C@@H](CCC(=O)O)C(=O)N[C@@H](CC(C)C)C(=O)N[C@@H](CCC(N)=O)C(=O)N[C@@H](CCCNC(=N)N)C(=O)N[C@@H](Cc1ccc(O)cc1)C(=O)N[C@@H](Cc1ccc(O)cc1)C(=O)N[C@H](C(=O)N[C@@H](CO)C(=O)N[C@@H](C)C(=O)N[C@@H](CCCNC(=N)N)C(=O)N[C@@H](Cc1c[nH]cn1)C(=O)N[C@@H](Cc1ccc(O)cc1)C(=O)N[C@@H](Cc1ccc(O)cc1)C(=O)N[C@@H](CC(N)=O)C(=O)N[C@@H](Cc1c[nH]c2ccccc12)C(=O)N[C@@H](CC(C)C)C(=O)N[C@H](C(=O)N[C@@H](CCCNC(=N)N)C(=O)N[C@@H](CCC(N)=O)C(=O)N[C@@H](CCCNC(=N)N)C(=O)N[C@@H](Cc1ccc(O)cc1)C(N)=O)[C@@H](C)O)C(C)C [Compound 141, N{alpha-4}-(3-methylbutanoyl)-N{epsilon-7}-[2-(2-{2-[2-(2-{2-[(4S)-4-carboxy-4-(17-carboxyheptadecanamido)butanamido]ethoxy}ethoxy)acetamido]ethoxy}ethoxy)acetamido]-[4A,7K,9E,11A,18Q,22V,24A,28Y,30W,31L]hPYY (4-36)] (Isovaleryl-APEK([AEEA-AEEA-γGlu-C18 diacid])PEEAASPEELQRYYVSARHYYNWLTRQRY-NH2)
